The record followed here is patent US11884631B1 (priority 2023, dated 2024).

Molecules are shown by their SMILES.

The test deals with multidrug-resistant (MDR) strains of Mycobacterium tuberculosis. As to the kind of experiment: microbe, parasite or virus in culture. It counts as cell-based. To be noted: read-out: MIC (μg/mL) MDR Strain.
As to `Cc1ccc2c(ccc[n+]2CC(=O)c2ccccc2[N+](=O)[O-])c1.[Br-]` [Compound 3a, 6-Methyl-1-(2-(2-nitrophenyl)-2-oxoethyl)quinolin-1-ium bromide], the MIC came to 64 µg/mL.
Then `Cc1ccc2c(ccc[n+]2CC(=O)c2cc(C(F)(F)F)cc(C(F)(F)F)c2)c1.[Br-]` [Compound 3c, 1-(2-(3,5-Bis(trifluoromethyl)phenyl)-2-oxoethyl)-6-methylquinolin-1-ium bromide], with 32 µg/mL.
`Cc1ccc2c(ccc[n+]2CC(=O)c2ccc(F)cc2)c1.[Br-]` [Compound 3b, 1-(2-(4-Fluorophenyl)-2-oxoethyl)-6-methylquinolin-1-ium bromide]: the MIC came out at 16 µg/mL.
